Experiments:
BRAF G466V = target: T1, BRAF G466V (Homo sapiens, UniProt P15056, G466V); experiment: Cellular assay of target protein degradation, T-Rex 293 cells stably transfected with HA-BRAF G466V (HA immunofluorescence, high content imaging); assay type: cell-based; conditions: T-Rex 293 HA-BRAF G466V; for DC50: half maximal degradation, read-out: BRaf G466V DC50; for Dmax: maximum degradation observed
T1 construct: expressed in transfected cells
Procedure, shortened: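 HA-BRAF G466V levels were read by HA immunofluorescence and high-content imaging after 24 h compound exposure (final 30 nM–3 pM, 0.1% DMSO, 37 °C). Expression was induced with 0.75 ng/mL doxycycline. Outputs: half-maximal degradation concentration (DC50) and maximal degradation (Dmax) relative to control.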

BRAF V600E = target: T2, BRAF V600E (Homo sapiens, UniProt P15056, V600E); experiment: Cellular assay of target protein degradation, T-Rex 293 cells stably transfected with HA-BRAF_V600E (HA immunofluorescence, high content imaging); assay type: cell-based; conditions: T-Rex 293 HA-BRAF V600E; for DC50: half maximal degradation, read-out: BRaf V600E DC50; for Dmax: maximum degradation observed
T2 construct: expressed in transfected cells
Procedure, shortened: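 HA immunofluorescence on fixed cells, imaged by high-content reader, measured loss of HA-BRAF V600E in stably transfected T-Rex 293 cells induced with 1 ng/mL doxycycline. Compounds were applied for 24 h at 37 °C (final 0.1 nM–1 μM, 0.1% DMSO); DC50 and Dmax (% of control) were reported.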

T1 sequence (P15056 whole entry G466V): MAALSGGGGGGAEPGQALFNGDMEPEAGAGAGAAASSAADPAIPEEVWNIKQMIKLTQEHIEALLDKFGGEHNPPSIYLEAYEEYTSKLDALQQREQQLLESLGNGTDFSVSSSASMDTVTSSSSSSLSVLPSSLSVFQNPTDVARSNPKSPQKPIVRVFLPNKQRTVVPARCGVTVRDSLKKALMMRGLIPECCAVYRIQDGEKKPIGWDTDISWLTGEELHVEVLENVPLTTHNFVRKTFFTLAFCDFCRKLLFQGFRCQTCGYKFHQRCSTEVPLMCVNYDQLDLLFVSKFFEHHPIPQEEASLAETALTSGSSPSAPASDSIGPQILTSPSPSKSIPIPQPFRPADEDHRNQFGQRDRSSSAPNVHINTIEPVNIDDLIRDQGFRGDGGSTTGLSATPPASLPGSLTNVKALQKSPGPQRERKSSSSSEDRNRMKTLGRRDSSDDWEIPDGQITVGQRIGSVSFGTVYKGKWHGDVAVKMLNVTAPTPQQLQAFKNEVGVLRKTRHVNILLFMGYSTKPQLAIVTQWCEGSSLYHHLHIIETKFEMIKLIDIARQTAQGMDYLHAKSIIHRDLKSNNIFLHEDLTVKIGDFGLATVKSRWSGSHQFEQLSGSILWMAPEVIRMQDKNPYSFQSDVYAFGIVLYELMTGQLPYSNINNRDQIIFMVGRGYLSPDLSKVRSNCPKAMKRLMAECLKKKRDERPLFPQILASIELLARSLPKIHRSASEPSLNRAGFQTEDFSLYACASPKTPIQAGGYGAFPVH
T2 sequence (P15056 whole entry V600E): as the sequence (P15056 whole entry G466V) above, with V466G, V600E counted along it

In the case of `CN(CC1CCN(c2ccc(-c3cnc4[nH]cc(C(=O)c5c(F)ccc(NS(=O)(=O)N6CC[C@@H](F)C6)c5F)c4c3)cc2)CC1)[C@H]1C[C@@H](Oc2ccc3c(c2)CN(C2CCC(=O)NC2=O)C3=O)C1` (stereo partly drawn) [Compound 155, (3R)-N-[2,4-difluoro-3-(5-{4-[4-({methyl[(1s,3s)-3-{[2-(2,6-dioxopiperidin-3-yl)-1-oxo-2,3-dihydro-1H-isoindol-5-yl]oxy}cyclobutyl]amino}methyl)piperidin-1-yl]phenyl}-1H-pyrrolo[2,3-b]pyridine-3-carbonyl)phenyl]-3-fluoropyrrolidine-1-sulfonamide], the DC50 (BRAF G466V) is reported as 1 to 10 nM, the Dmax (BRAF G466V) is reported as > 70% and the DC50 (BRAF V600E) is reported as 5 to 50 nM. It also gave a Dmax (BRAF V600E) of 35 to 70%.
For `O=C1CCN(c2ccc(N3CCC(CN4CC5(C4)CN(c4ccc(-c6cnc7[nH]cc(C(=O)c8c(F)ccc(NS(=O)(=O)N9CC[C@@H](F)C9)c8F)c7c6)cc4)C5)CC3)cc2F)C(=O)N1` [Compound 156, (3R)-N-[3-(5-{4-[6-({1-[4-(2,4-dioxo-1,3-diazinan-1-yl)-3-fluorophenyl]piperidin-4-yl}methyl)-2,6-diazaspiro[3.3]heptan-2-yl]phenyl}-1H-pyrrolo[2,3-b]pyridine-3-carbonyl)-2,4-difluorophenyl]-3-fluoropyrrolidine-1-sulfonamide], the DC50 (BRAF G466V) was 1 to 10 nM, the Dmax (BRAF G466V) was > 70% and the DC50 (BRAF V600E) was 5 to 50 nM. It also gave a Dmax (BRAF V600E) of 35 to 70%.
In the case of `O=C1CCC(N2Cc3cc(C4CCN(CC5CCN(c6ccc(-c7cnc8[nH]cc(C(=O)c9c(F)ccc(NS(=O)(=O)N%10CC[C@@H](F)C%10)c9F)c8c7)cc6)CC5)CC4)c(F)cc3C2=O)C(=O)N1` (stereo partly drawn) [Compound 157, (3R)-N-[3-(5-{4-[4-({4-[2-(2,6-dioxopiperidin-3-yl)-6-fluoro-1-oxo-2,3-dihydro-1H-isoindol-5-yl]piperidin-1-yl}methyl)piperidin-1-yl]phenyl}-1H-pyrrolo[2,3-b]pyridine-3-carbonyl)-2,4-difluorophenyl]-3-fluoropyrrolidine-1-sulfonamide], the DC50 (BRAF G466V) is reported as 1 to 10 nM, the Dmax (BRAF G466V) is reported as > 70% and the DC50 (BRAF V600E) is reported as 5 to 50 nM. The Dmax (BRAF V600E) was 35 to 70%.
In the case of `O=C1CCC(N2Cc3cc(N4CC5(CN(CCOc6ccc(-c7cnc8[nH]cc(C(=O)c9c(F)ccc(NS(=O)(=O)N%10CC[C@@H](F)C%10)c9F)c8c7)cn6)C5)C4)ccc3C2=O)C(=O)N1` (stereo partly drawn) [Compound 158, (3R)-N-(3-{5-[6-(2-{6-[2-(2,6-dioxopiperidin-3-yl)-1-oxo-2,3-dihydro-1H-isoindol-5-yl]-2,6-diazaspiro[3.3]heptan-2-yl}ethoxy)pyridin-3-yl]-1H-pyrrolo[2,3-b]pyridine-3-carbonyl}-2,4-difluorophenyl)-3-fluoropyrrolidine-1-sulfonamide], the DC50 (BRAF G466V) is reported as 1 to 10 nM, the Dmax (BRAF G466V) is reported as > 70% and the DC50 (BRAF V600E) is reported as 5 to 50 nM. For the same molecule, the Dmax (BRAF V600E) was 35 to 70%.
In the case of `O=C1CCC(N2Cc3cc(N4CC(C5CN(c6ccc(-c7cnc8[nH]cc(C(=O)c9c(F)ccc(NS(=O)(=O)N%10CC[C@@H](F)C%10)c9F)c8c7)cc6)C5)C4)ccc3C2=O)C(=O)N1` (stereo partly drawn) [Compound 159, (3R)-N-{3-[5-(4-{1′-[2-(2,6-dioxopiperidin-3-yl)-1-oxo-2,3-dihydro-1H-isoindol-5-yl]-[3,3′-biazetidin]-1-yl}phenyl)-1H-pyrrolo[2,3-b]pyridine-3-carbonyl]-2,4-difluorophenyl}-3-fluoropyrrolidine-1-sulfonamide], the DC50 (BRAF G466V) is reported as > 30 nM and the DC50 (BRAF V600E) is reported as > 500 nM.
In the case of `O=C1CC[C@H](N2Cc3cc(C4CCN(CC5CCN(c6ccc(-c7cnc8[nH]cc(C(=O)c9c(F)ccc(NS(=O)(=O)N%10CC[C@@H](F)C%10)c9F)c8c7)cc6)CC5)CC4)ccc3C2=O)C(=O)N1` [Compound 160, (3R)—N-[3-[5-[4-[4-[[4-[2-[(3S)-2,6-dioxo-3-piperidyl]-1-oxo-isoindolin-5-yl]-1-piperidyl]methyl]-1-piperidyl]phenyl]-1H-pyrrolo[2,3-b]pyridine-3-carbonyl]-2,4-difluoro-phenyl]-3-fluoro-pyrrolidine-1-sulfonamide], the DC50 (BRAF G466V) is reported as < 1 nM, the Dmax (BRAF G466V) is reported as > 70% and the DC50 (BRAF V600E) is reported as < 5 nM. It also gave a Dmax (BRAF V600E) of 35 to 70%.
`O=C1CC[C@@H](N2Cc3cc(C4CCN(CC5CCN(c6ccc(-c7cnc8[nH]cc(C(=O)c9c(F)ccc(NS(=O)(=O)N%10CC[C@@H](F)C%10)c9F)c8c7)cc6)CC5)CC4)ccc3C2=O)C(=O)N1` [Compound 161, (3R)-N-{3-[5-(4-{4-[(4-{2-[(3R)-2,6-dioxopiperidin-3-yl]-1-oxo-2,3-dihydro-1H-isoindol-5-yl}lpiperidin-1-yl)methyl]piperidin-1-yl}phenyl)-1H-pyrrolo[2,3-b]pyridine-3-carbonyl]-2,4-difluorophenyl}-3-fluoropyrrolidine-1-sulfonamide] was tested, and the DC50 (BRAF G466V) was < 1 nM, the Dmax (BRAF G466V) was > 70% and the DC50 (BRAF V600E) was 5 to 50 nM. For the same molecule, the Dmax (BRAF V600E) was 35 to 70%.
Work on `O=C1CCC(N2Cc3cc(N4CCC(CN5CCN(C6(c7ccc(-c8cnc9[nH]cc(C(=O)c%10c(F)ccc(NS(=O)(=O)N%11CC[C@@H](F)C%11)c%10F)c9c8)cc7)CC6)CC5)CC4)ccc3C2=O)C(=O)N1` (stereo partly drawn) [Compound 162, (3R)-N-{3-[5-(4-{1-[4-({1-[2-(2,6-dioxopiperidin-3-yl)-1-oxo-2,3-dihydro-1H-isoindol-5-yl]piperidin-4-yl}methyl)piperazin-1-yl]cyclopropyl}phenyl)-1H-pyrrolo[2,3-b]pyridine-3-carbonyl]-2,4-difluorophenyl}-3-fluoropyrrolidine-1-sulfonamide] yielded a DC50 (BRAF G466V) of 1 to 10 nM, a Dmax (BRAF G466V) of 35 to 70% and a DC50 (BRAF V600E) of 50 to 500 nM. The Dmax (BRAF V600E) was < 35%.
`COc1cc(C2CCN(CC3CCN(c4ccc(-c5cnc6[nH]cc(C(=O)c7c(F)ccc(NS(=O)(=O)N8CC[C@@H](F)C8)c7F)c6c5)cc4F)CC3)CC2)cc2c1C(=O)N(C1CCC(=O)NC1=O)C2` (stereo partly drawn) [Compound 163, (3R)-N-[3-(5-{4-[4-({4-[2-(2,6-dioxopiperidin-3-yl)-7-methoxy-1-oxo-2,3-dihydro-1H-isoindol-5-yl]piperidin-1-yl}methyl)piperidin-1-yl]-3-fluorophenyl}-1H-pyrrolo [2,3-b]pyridine-3-carbonyl)-2,4-difluorophenyl]-3-fluoropyrrolidine-1-sulfonamide] was tested, and the DC50 (BRAF G466V) was 1 to 10 nM, the Dmax (BRAF G466V) was > 70% and the DC50 (BRAF V600E) was 5 to 50 nM. It also gave a Dmax (BRAF V600E) of 35 to 70%.
With `COc1cc(C2CCN(CC3CCN(c4ccc(-c5cnc6[nH]cc(C(=O)c7c(F)ccc(NS(=O)(=O)N8CC[C@@H](F)C8)c7F)c6c5)cn4)CC3)CC2)cc2c1C(=O)N(C1CCC(=O)NC1=O)C2` (stereo partly drawn) [Compound 164, (3R)-N-[3-(5-{6-[4-({4-[2-(2,6-dioxopiperidin-3-yl)-7-methoxy-1-oxo-2,3-dihydro-1H-isoindol-5-yl]piperidin-1-yl}methyl)piperidin-1-yl]pyridin-3-yl}-1H-pyrrolo[2,3-b]pyridine-3-carbonyl)-2,4-difluorophenyl]-3-fluoropyrrolidine-1-sulfonamide] the DC50 (BRAF G466V) was < 1 nM, the Dmax (BRAF G466V) was > 70% and the DC50 (BRAF V600E) was 5 to 50 nM. For the same molecule, the Dmax (BRAF V600E) was 35 to 70%.
`O=C1CC[C@H](N2Cc3cc(OC[C@@H](O)CN4CC5(C4)CN(c4ccc(-c6cnc7[nH]cc(C(=O)c8c(F)ccc(NS(=O)(=O)N9CC[C@@H](F)C9)c8F)c7c6)cc4)C5)ccc3C2=O)C(=O)N1` [Compound 165, (3R)-N-{3-[5-(4-{6-[(2S)-3-({2-[(3S)-2,6-dioxopiperidin-3-yl]-1-oxo-2,3-dihydro-1H-isoindol-5-yl}oxy)-2-hydroxypropyl]-2,6-diazaspiro[3.3]heptan-2-yl}phenyl)-1H-pyrrolo[2,3-b]pyridine-3-carbonyl]-2,4-difluorophenyl}-3-fluoropyrrolidine-1-sulfonamide] was tested, and the DC50 (BRAF G466V) was 1 to 10 nM, the Dmax (BRAF G466V) was > 70% and the DC50 (BRAF V600E) was 5 to 50 nM. For the same molecule, the Dmax (BRAF V600E) was 35 to 70%.

From US12180193B2, “Accelerating fibrosarcoma protein degrading compounds and associated methods of use” (Arvinas Operations, Inc., priority 2020, dated 2024)
